According to article PMC9963659, “Novel 2-Thiouracil-5-Sulfonamide Derivatives: Design, Synthesis, Molecular Docking, and Biological Evaluation as Antioxidants with 15-LOX Inhibition” (Molecules, 2023):
“And” between values parts separate entries of the source, which are not always exact repeats. Equal values may be shown once.

Experiments:
[1] = Lipid peroxidation assay (FeCl2/H2O2-stimulated linoleic acid peroxidation); format: biochemical; settings: mean ± SEM of three experiments
[2] = Hydrogen peroxide scavenging assay; format: biochemical; settings: mean ± SEM of three experiments
Experimental: H2O2 assay is used to estimate the scavenging power of the target compounds (4–9) to H2O2.
The hydrogen peroxide (H2O2) scavenging activity of all novel synthesized compounds 3–9 was measured as previously reported (see Supplementary Materials).
1-Biological Evaluation Details: a-In-vitro Assays for biological antioxidant Activity […]
Linear regression analysis was performed to calculate drug concentration showing 50% free radical inhibition activity (IC50). All tests were performed in triplicates.
-Scavenging of hydrogen peroxide
In this method, the decay or loss of hydrogen peroxide can be quantified spectrophotometrically at 230 nm when a scavenger is incubated with it. The procedure was applied with a few changes. In phosphate buffered saline, hydrogen […]
peroxide (20 mM) solution was prepared in phosphate buffered saline (PBS, pH 7.4). In order to make different concentrations of 1 ml of the tested substances (3–9) or standards in methanol, 2 ml of hydrogen peroxide solution in PBS was added. After 10 minutes, the absorbance of H2O2 was measured at 230 nm in comparison to an ascorbic acid (AA) reference solution that contained phosphate buffer but no H2O2.
% of H2O2 scavenging = [(A control -A sample) / A control] x100. […]

[3] = DPPH radical scavenging assay; format: biochemical; settings: mean ± SEM of three experiments
Experimental: The antioxidant potential of all target compounds (3–9) was determined using DPPH radical scavenging assay in comparison with ascorbic acid (AA) as the control treatment.
The mechanism of antioxidants as DPPH radical scavengers is based on their hydrogen-donation ability as hydrogen atoms or an electron transfer from the compound to the DPPH to form DPPH-H. The results of DPPH reduction are presented in Table 2, Figure 7.
The DPPH scavenging activity of all novel synthesized compounds (3–9) was measured as previously described (see Supplementary Materials).
1-Biological Evaluation Details: a-In-vitro Assays for biological antioxidant Activity
- DPPH scavenging method.
A 96-well plate was filled with 100 µL of the investigated compounds at various concentrations (12.5, 25, 50, 100, and 200 µg/mL ). The plate was then incubated at room temperature for 30 min while being protected from light by adding 100 µL of 100µM DPPH methanolic solution to each well. At a λ517 nm. the solution's absorbance was measured.
The positive control was ascorbic acid, and the negative control was DMSO. According to the following equation, the percentage of DPPH scavenging activity was determined:
% of DPPH scavenging = [(A control -A sample) / A control] x100. where A control is the absorbance of the control reaction (with all reagents except the test compound), and A sample is the absorbance of the test sample. Linear regression analysis was performed to calculate drug concentration showing 50% free radical inhibition activity (IC50). All tests were performed in triplicates. […]

Soybean 15-LOX enzyme = molecular target: T1, Soybean 15-LOX enzyme (Glycine max, UniProt P08170); test: In vitro 15-lipoxygenase inhibition (Cayman Lipoxygenase Inhibitor Screening Assay Kit); format: biochemical; settings: Soybean 15-LOX, arachidonic acid substrate; mean ± SEM of three experiments
T1 construct: purchased Cayman Chemical 760700
T1 sequence (P08170 1-839): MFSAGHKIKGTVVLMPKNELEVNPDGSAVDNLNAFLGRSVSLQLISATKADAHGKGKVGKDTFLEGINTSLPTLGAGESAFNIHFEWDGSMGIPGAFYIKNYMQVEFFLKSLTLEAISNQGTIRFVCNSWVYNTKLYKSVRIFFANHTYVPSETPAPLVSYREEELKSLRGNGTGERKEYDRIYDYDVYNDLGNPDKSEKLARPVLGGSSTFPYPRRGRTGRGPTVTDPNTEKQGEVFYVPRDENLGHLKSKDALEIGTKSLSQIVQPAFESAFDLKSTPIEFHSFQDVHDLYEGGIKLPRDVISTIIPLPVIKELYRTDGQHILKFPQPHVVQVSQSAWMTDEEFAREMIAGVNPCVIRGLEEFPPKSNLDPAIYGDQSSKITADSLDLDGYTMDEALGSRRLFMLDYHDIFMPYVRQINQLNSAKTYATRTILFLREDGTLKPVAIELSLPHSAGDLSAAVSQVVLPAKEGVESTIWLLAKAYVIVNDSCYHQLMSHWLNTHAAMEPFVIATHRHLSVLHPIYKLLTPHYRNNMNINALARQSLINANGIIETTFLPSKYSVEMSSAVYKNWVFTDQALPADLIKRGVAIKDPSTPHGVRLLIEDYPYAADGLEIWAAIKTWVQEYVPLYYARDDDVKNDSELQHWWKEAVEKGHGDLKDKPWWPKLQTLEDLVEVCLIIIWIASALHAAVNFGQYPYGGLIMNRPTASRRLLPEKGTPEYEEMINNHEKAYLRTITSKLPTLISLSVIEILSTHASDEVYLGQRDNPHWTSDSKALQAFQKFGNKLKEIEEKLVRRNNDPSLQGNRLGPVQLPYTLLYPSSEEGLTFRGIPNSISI
Experimental: 90 µL of 15-LOX was pipetted into a 96-well plate quickly. The test chemical was then dissolved in DMSO in 10 µL portions at concentrations of 2.5 µM, 5.0 µM, and 10 µM and added to each well. Arachidonic acid, a 110 µL substrate, was added to start the reaction, and the plate was shaken for at least five minutes. In order to interrupt enzyme catalysis and advance the reaction, 100 µL of chromogen was added to each well and made in accordance with the manufacturer’s instructions. In blank wells, 100 µL of assay buffer (0.1 M Tris-HCl, pH 7.4) was utilized. […] The solution’s absorbance was determined at λ 490–500 nm. The percentage inhibition was calculated according to the following equation:% inhibition = [(IA − Ainhibitor sample)/IA] × 100(1) where (IA) is the 100% initial activity and (Ainhibitor sample) is the absorbance of the test sample. A dose-response curve was plotted between % inhibition and the drug concentration. The non-linear dose-response curve was used for calculating drug concentration showing 50% enzyme inhibition.

O=C1O[C@H]([C@@H](O)CO)C(O)=C1O [Ascorbic acid, reference compound]
Lipid Peroxidation IC50 [1]: 36.0 ± 1.30 µg/mL
H2O2 IC50 [2]: 23.0 ± 1.37 µg/mL
DPPH IC50 [3]: 12.80 ± 0.90 µg/mL

CC(=O)c1cccc(NS(=O)(=O)c2c[nH]c(=S)[nH]c2=O)c1 [Compound 3, N-(3-Acetylphenyl)-4-oxo-2-thioxo-1,2,3,4-tetrahydropyrimidine-5-sulfonamide]
Lipid Peroxidation IC50 [1]: >100 µg/mL
melting point: 318 to 320 °C
H2O2 IC50 [2]: >100 µg/mL
DPPH IC50 [3]: 80.0 ± 0.70 µg/mL

O=C(C=Cc1cccc([N+](=O)[O-])c1)c1cccc(NS(=O)(=O)c2c[nH]c(=S)[nH]c2=O)c1 [Compound 4a, N-{3-[(2E)-3-(3-nitrophenyl)prop-2-enoyl]phenyl}-4-oxo-2-thioxo-1,2,3,4-tetrahydro pyrimidine-5-sulfonamide]
Lipid Peroxidation IC50 [1]: >100 µg/mL
melting point: 240 to 242 °C
H2O2 IC50 [2]: >100 µg/mL
DPPH IC50 [3]: 50.5 ± 0.79 µg/mL

O=C(/C=C/c1cccc(Cl)c1)c1cccc(NS(=O)(=O)c2c[nH]c(=S)[nH]c2=O)c1 [Compound 4b, N-{3-[(2E)-3-(3-chlorophenyl)prop-2-enoyl]phenyl}-4-oxo-2-thioxo-1,2,3,4-tetra hydropyrimidine-5-sulfonamide]
Lipid Peroxidation IC50 [1]: >100 µg/mL
melting point: 283 to 285 °C
H2O2 IC50 [2]: 95.0 ± 1.40 µg/mL
DPPH IC50 [3]: 44.3 ± 1.67 µg/mL

O=C(/C=C/c1cccc(F)c1)c1cccc(NS(=O)(=O)c2c[nH]c(=S)[nH]c2=O)c1 [Compound 4c, N-{3-[(2E)-3-(3-fluorophenyl)prop-2-enoyl]phenyl}-4-oxo-2-thioxo-1,2,3,4-tetra hydropyrimidine-5-sulfonamide]
Lipid Peroxidation IC50 [1]: >100 µg/mL
melting point: 270 to 272 °C
H2O2 IC50 [2]: >100 µg/mL
DPPH IC50 [3]: 43.0 ± 0.50 µg/mL

Cc1cccc(/C=C/C(=O)c2cccc(NS(=O)(=O)c3c[nH]c(=S)[nH]c3=O)c2)c1 [Compound 4d, N-{3-[(2E)-3-(3-methylphenyl)prop-2-enoyl]phenyl}-4-oxo-2-thioxo-1,2,3,4-tetra hydropyrimidine-5-sulfonamide]
Lipid Peroxidation IC50 [1]: >100 µg/mL
melting point: 287 to 289 °C
H2O2 IC50 [2]: 80.0 ± 0.70 µg/mL
DPPH IC50 [3]: 40.0 ± 1.70 µg/mL

CNC(=S)NN=C(C)c1cccc(NS(=O)(=O)c2c[nH]c(=S)[nH]c2=O)c1 [Compound 5a, N-{3-[(1E)-N-(methylcarbamothionyl)ethanhydrazonoyl]phenyl}-4-oxo-2-thioxo-1,2,3,4-tetrahydropyrimidine-5-sulfonamide]
Lipid Peroxidation IC50 [1]: 90.0 ± 1.45 µg/mL
IC50 (Soybean 15-LOX enzyme): 5.79 ± 0.01 µM
melting point: 305 to 307 °C
H2O2 IC50 [2]: 41.0 ± 1.53 µg/mL
DPPH IC50 [3]: 14.50 ± 0.72 µg/mL

CCNC(=S)NN=C(C)c1cccc(NS(=O)(=O)c2c[nH]c(=S)[nH]c2=O)c1 [Compound 5b, N-{3-[(1E)-N-(ethylcarbamothionyl)ethanhydrazonoyl]phenyl}-4-oxo-2-thioxo-1,2,3,4-tetrahydropyrimidine-5-sulfonamide]
Lipid Peroxidation IC50 [1]: 85.0 ± 1.03 µg/mL
IC50 (Soybean 15-LOX enzyme): 5.7 ± 0.03 µM
melting point: 310 to 312 °C
H2O2 IC50 [2]: 40.0 ± 1.32 µg/mL
DPPH IC50 [3]: 14.70 ± 0.22 µg/mL and 14.00 ± 0.22 µg/mL

COc1ccc(NC(=S)NN=C(C)c2cccc(NS(=O)(=O)c3c[nH]c(=S)[nH]c3=O)c2)cc1 [Compound 5c, N-{3-[(1E)-N-(4-methoxycarbamothionyl)ethanhydrazonoyl]phenyl}-4-oxo-2-thioxo-1,2,3,4-tetrahydropyrimidine-5-sulfonamides]
Lipid Peroxidation IC50 [1]: 82.0 ± 1.40 µg/mL
IC50 (Soybean 15-LOX enzyme): 5.5 ± 0.02 µM
melting point: 307 to 309 °C
H2O2 IC50 [2]: 45.05 ± 1.34 µg/mL
DPPH IC50 [3]: 9.0 ± 1.10 µg/mL

CC(=NNC(=S)Nc1ccc(F)cc1)c1cccc(NS(=O)(=O)c2c[nH]c(=S)[nH]c2=O)c1 [Compound 5d, N-{3-[(1E)-N-(4-fluorocarbamothionyl)ethanhydrazonoyl]phenyl}-4-oxo-2-thioxo-1,2,3,4-tetrahydropyrimidine-5-sulfonamides]
Lipid Peroxidation IC50 [1]: 95.0 ± 1.42 µg/mL
IC50 (Soybean 15-LOX enzyme): 5.9 ± 0.06 µM
melting point: 313 to 315 °C
H2O2 IC50 [2]: 47.0 ± 1.38 µg/mL
DPPH IC50 [3]: 14.72 ± 1.11 µg/mL

N#Cc1c(-c2cccc([N+](=O)[O-])c2)cc(-c2cccc(NS(=O)(=O)c3c[nH]c(=S)[nH]c3=O)c2)[nH]c1=O [Compound 6a, N-{3-[5-cyano-4-(3-nitrophenyl)-6-oxo-1,6-dihydropyridin-2-yl]phenyl}-4-oxo-2-thioxo-1,2,3,4-tetrahydropyrimidine-5-sulfonamide]
Lipid Peroxidation IC50 [1]: 45.0 ± 1.52 µg/mL
IC50 (Soybean 15-LOX enzyme): 7.85 ± 0.01 µM
melting point: 266 to 268 °C
H2O2 IC50 [2]: 31.0 ± 1.30 µg/mL
DPPH IC50 [3]: 28.0 ± 1.06 µg/mL

N#Cc1c(-c2cccc(Cl)c2)cc(-c2cccc(NS(=O)(=O)c3c[nH]c(=S)[nH]c3=O)c2)[nH]c1=O [Compound 6b, N-{3-[5-cyano-4-(3-chlorophenyl)-6-oxo-1,6-dihydropyridin-2-yl]phenyl}-4-oxo-2-thioxo-1,2,3,4-tetrahydropyrimidine-5-sulfonamide]
Lipid Peroxidation IC50 [1]: 40.0 ± 1.63 µg/mL
IC50 (Soybean 15-LOX enzyme): 7.6 ± 0.05 µM
melting point: 272 to 274 °C
H2O2 IC50 [2]: 30.0 ± 1.21 µg/mL
DPPH IC50 [3]: 22.0 ± 1.18 µg/mL

N#Cc1c(-c2cccc(F)c2)cc(-c2cccc(NS(=O)(=O)c3c[nH]c(=S)[nH]c3=O)c2)[nH]c1=O [Compound 6c, N-{3-[5-cyano-4-(3-fluorophenyl)-6-oxo-1,6-dihydropyridin-2-yl]phenyl}-4-oxo-2-thioxo-1,2,3,4-tetrahydropyrimidine-5-sulfonamide]
Lipid Peroxidation IC50 [1]: 39.0 ± 1.46 µg/mL
IC50 (Soybean 15-LOX enzyme): 7.8 ± 0.02 µM
melting point: 287 to 289 °C
H2O2 IC50 [2]: 29.0 ± 1.03 µg/mL
DPPH IC50 [3]: 21.7 ± 0.7 µg/mL

O=C(CBr)c1cccc(NS(=O)(=O)c2c[nH]c(=S)[nH]c2=O)c1 [Compound 8, N-[3-(bromoacetyl)phenyl]-4-oxo-2-thioxo-1,2,3,4-tetrahydropyrimidine-5-sulfonamide]
Lipid Peroxidation IC50 [1]: >100 µg/mL
melting point: 305 to 307 °C
H2O2 IC50 [2]: >100 µg/mL
DPPH IC50 [3]: 70.27 ± 1.17 µg/mL
